In patent US4579866A, “Phenylacetamides as anti-allergy, anti-asthma and anti-inflammatory agents” (USV Pharmaceutical Corp., priority 1984, dated 1986):

Biological target: T1, HUMAN 5 LIPOXYGENASE (Homo sapiens, UniProt P09917)
T1 construct: A suspension of human neutrophils in buffer; endogenous in cells; host or cells: human neutrophils (PMNs) from venous blood of healthy volunteers
T1 sequence (P09917 1-674): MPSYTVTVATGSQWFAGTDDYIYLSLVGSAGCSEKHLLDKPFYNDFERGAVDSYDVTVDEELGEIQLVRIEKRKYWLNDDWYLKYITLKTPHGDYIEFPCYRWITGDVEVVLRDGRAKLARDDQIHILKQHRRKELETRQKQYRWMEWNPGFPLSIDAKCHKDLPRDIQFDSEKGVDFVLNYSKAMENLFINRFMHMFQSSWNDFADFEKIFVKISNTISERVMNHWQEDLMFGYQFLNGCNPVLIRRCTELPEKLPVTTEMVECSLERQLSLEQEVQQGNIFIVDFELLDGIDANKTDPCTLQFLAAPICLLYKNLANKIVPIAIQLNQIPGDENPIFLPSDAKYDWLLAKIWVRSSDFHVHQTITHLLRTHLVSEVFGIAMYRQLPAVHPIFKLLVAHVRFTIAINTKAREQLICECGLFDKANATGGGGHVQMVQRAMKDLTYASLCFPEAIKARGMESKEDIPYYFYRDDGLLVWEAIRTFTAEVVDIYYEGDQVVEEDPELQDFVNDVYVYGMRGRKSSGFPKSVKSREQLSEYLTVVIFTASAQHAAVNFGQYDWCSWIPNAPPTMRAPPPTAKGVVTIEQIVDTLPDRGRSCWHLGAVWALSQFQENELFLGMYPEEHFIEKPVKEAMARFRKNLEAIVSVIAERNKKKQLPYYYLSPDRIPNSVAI
Experiment: Biosynthesis of 5-HETE by human polymorphonuclear leukocytes in vitro (inhibition of human 5-lipoxygenase)
Format: cell-based
Conditions: human neutrophils, A23187, 3 minutes at 30° C.; concentration at which 50% inhibition is observed; read-out: INHIBITION OF HUMAN 5 LIPOXYGENASE, I50
Procedure: Protocol for the Biosynthesis of 5-HETE (5(S)-Hydroxyeicosatetraenoic Acid) by Human Polymorphonuclear Leukocytes In Vitro
(A) Isolation of Human Neutrophils
Freshly drawn venous blood from healthy human volunteers is mixed with 2 mM ethylenediamine tetraacetic acid, and is sedimented at 1×g over 6% dextran-saline. The leukocyte layer is aspirated, and the cells are concentrated by centrifugation and are layered over stacked Percoll® solutions, having densities of 1.072, 1.082 and 1.100, respectively. PMNs are isolated at the interface between the two densest layers after centrifugation at 400×g. Contaminating red blood cells are lysed by a short treatment of 0.16M ammonium chloride.
A suspension of human neutrophils in buffer is incubated for 3 minutes at 30° C. with (^14 C)-arachidonic acid (AA) and calcium ionophore A23187. Citric Acid (2M)/NDGA*(10 mM) is used to quench the reaction. Following the addition of a trace amount of (^3 H)-5-HETE together with an excess of unlabeled 5-HETE to each tube, the mixture is extracted with chloroform/methanol. The organic layer is washed with dilute hydrochloric acid and the total volume is transferred to glass tubes and dried in vacuo. The residue is dissolved in a small volume of chloroform and is spotted on silica gel TLC sheets, which are developed with an ethyl acetate/iso-octane/water/acetic acid solvent system (11/5/10/1 v/v). The 5-HETE spots are visualized under UV light, cut out and placed in scintillation vials for quantitation of radioactivity. After adjusting for the extraction efficiency, the amount (pmole) of (^14 C)-5-HETE in each of the tubes is calculated. The net pmoles of 5-HETE are obtained by subtracting the pmole of 5-HETE in the tubes containing buffer alone (blank) from the pmoles of 5-HETE in the tubes containing […]. The ability of the test compound to modulate the activity of this enzyme is determined by a decrease or increase in the net amount of 5-HETE produced. This assay is a modification of that described by Bach and Brashler for rat peritoneal cells: Bach, M., Brashler, J.: Ionophore A23187-Induced Production of SRS-A by Rat Peritoneal Cells In Vitro: Evidence for Production by Mononuclear Cells. J. Immunol. 120 998-1005 (1978).
*NDGA-nordihydroguaiaretic acid
If the percentage of inhibition exceeds 50%, the compounds are then evaluated in terms of response over a range of concentrations. From a plot of response against concentration, the I50 value is obtained. The I50 value is the concentration at which 50% inhibition is observed.

IC50 [µM] | SMILES
6 | CCCOc1ccc(CC(=O)N[C@H](Cc2ccccc2)C(=O)OC)cc1Cl [3-Chloro-4-n-propyloxyphenylacetyl-D-phenylalanine methyl ester]
1.5 | C#CCOc1ccc(CC(=O)N[C@H](Cc2ccccc2)C(=O)OC)cc1Cl [3-Chloro-4-propargyloxyphenylacetyl-D-phenylalanine methyl ester]
2 | C=CCOc1ccc(CC(=O)N(C)CCc2ccccc2)cc1Cl [N--[4-Alloyoxy-3-chlorophenylacetyl]-N--methyl-2-phenylethylamine]
10 | CN(CC(O)c1ccccc1)C(=O)Cc1ccc(OCCc2ccccc2)c(Cl)c1 (stereo not shown) [N--[3-Chloro-4-phenylethyloxyphenylacetyl]-N--methyl-2-hydroxy-2-phenyl-ethyl-amine]
